One series has as its system MDCK-MDR1 cells. Kind of series: MDCK-MDR1 permeability assay. The class given is in vitro ADME. The settings on record: 10 µM compound, 2 h; for Efflux Ratio (Papp B-A/A-B): MDCK-MDR1 cells, actively effluxed if >2. The method, boiled down: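 MDCK-MDR1 monolayers grown 4 days, equilibrated 1 h in HBSS with 10 mM CaCl2 and 1 mM MgCl2. Compound at 10 µM added apically or basolaterally, 2 h at 37°C with shaking, receiver samples quantified by LC-MS/MS. Efflux ratio taken as Papp B/A over Papp A/B; monolayers accepted if lucifer yellow permeation ≤3%.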

Series [1] in a line: Solubility limit, turbidimetric assay. The class given is physicochemical. The following applies: upper limit 200 µM. The procedure: Solubility limits were determined by a turbidimetric assay, as described ([27]), with the solubility limit being defined as the compound concentration where light scattering began to rise. Two or more replicate assays were performed for each compound at each pH on different days.

Series [2] concerns HBV plus-polarity DNA in hepDES19 cells. Briefly: Effect of plasma proteins on compound potency. It is filed as cell-based, hepatitis B virus. The following applies: 10 µM compound, 72 h, media with BSA to 40 mg/mL versus 10% FBS (0.25 mg/mL BSA). The procedure:
HBV plus-polarity DNA suppression was assessed in hepDES19 cells following compound treatment for 72 h. Cells incubated with compound (10 µM) in either normal tissue culture media conditions containing 10% FBS, or in media supplemented with bovine serum albumin (BSA) to 40 mg/mL. Percent inhibition was determined, as described previously ([27], [28]). The presence of increased BSA levels was determined to affect compound potency if there was a statistically significant decrease in percent HBV plus polarity DNA suppression when compared to cells treated with compound in normal media conditions. Three or more replicate assays were performed on separate days.

The subject of the next series is HepDES19 cells. The following applies: read-out: HepDES19 CC50; 72 h, MTS; highest concentration tested 100 µM; mean ± SD.
For series [3], the system named is primary human hepatocytes (PHHs). Briefly: Primary human hepatocyte cytotoxicity (MTS assay). It is filed as cell-based. The settings on record: 72 h, highest concentration tested 100 µM, mean ± SD, read-out: PHH CC50. Here is the method:
PHH cytotoxicity was determined by MTS assays following 72 h compound exposure, as described in Woodson et al. ([27]).

Another series relates to CYP3A4 mRNA expression. Briefly: CYP3A4 induction, RT-qPCR in HepG2 cells. The following applies: 10 µM, 24 or 48 h, normalized to GAPDH and DMSO.
[4] abbreviates: pH 5 (fed simulated intestinal fluid).
[5] abbreviates: pH 6.5 (fasted simulated intestinal fluid).

Some results are limits rather than exact numbers.

Procedure for CYP3A4 mRNA expression: HepG2 cells were seeded on 12-well, tissue-culture-treated plates (Sarstedt) at 2.5 × 10^5 cells/well for 24 h. Cells were treated with 10 µM compound or 1% DMSO for 48 h with replenishment at 24 h. Cells were rinsed with PBS and lysed at 0, 24, and 48 h using TRI Reagent (Sigma Aldrich). […] Cellular DNA was degraded using DNase I (Invitrogen), according to the manufacturer’s instructions.
Complementary DNA (cDNA) synthesis employed the ProtoScript II First Strand cDNA Synthesis Kit (New England Biolabs) according to the manufacturer’s instructions with an additional incubation step at 25°C for 5 min. Reverse transcriptase-qPCR (RT-qPCR) was performed using a Quantstudio 5 (Thermo Fisher) in a final reaction volume of 20 µL with 4 µL cDNA template, 2× KAPA probe force master mix (Roche), 300 nM probe, and 100 nM forward and reverse primer. CYP3A4 expression was determined by normalizing the experimental sample cycle threshold values to DMSO-treated wells. GAPDH was used as a housekeeping gene.

As for `CC(=NOCc1ccc(F)c(F)c1)c1c(C)cc(=O)n(O)c1O` [Compound 1617], the “MDCK-MDR1 Papp category, apical to basolateral (A-B)” value with MDCK-MDR1 cells is reported as “low (low (<1*10^−6 cm/s))”. In addition, the “MDCK-MDR1 Papp category, basolateral to apical (B-A)” value in the series with MDCK-MDR1 cells is recorded as “low (low (<1*10^−6 cm/s))”. Also, the “Efflux Ratio (Papp B-A/A-B)” value with MDCK-MDR1 cells is on record as 1.01. For the same compound, the “Average Sol (solubility limit)” value in series [1] (setting [4]), in series [1] (setting [5]) and in series [1] (pH 7.4 (DMEM-F12 with 10% FBS)) was over 200 µM in each case. Besides, the “Sol 1 (solubility limit)” value is on record as over 200 µM in series [1] (pH 5, replicate 1); over 200 µM in series [1] (pH 6.5, replicate 1); over 200 µM in series [1] (pH 7.4, replicate 1). In addition, the “Sol 2 (solubility limit)” value was over 200 µM in series [1] (pH 5, replicate 2); over 200 µM in series [1] (pH 6.5, replicate 2); over 200 µM in series [1] (pH 7.4, replicate 2). Further, in series [2], the “Effect of increased albumin on HBV plus polarity DNA suppression” value is listed as “physiologically relevant”. Further, in the series with HepDES19 cells, the 50% cytotoxic concentration (CC50) was 72.9 ± 37.1 µM.
As for `CC(=NOCc1cccc(F)c1)c1c(C)cc(=O)n(O)c1O` [Compound 1618], in the series on MDCK-MDR1 cells, the “MDCK-MDR1 Papp category, apical to basolateral (A-B)” value was “low (low (<1*10^−6 cm/s))”. Further, in the series with MDCK-MDR1 cells, the “MDCK-MDR1 Papp category, basolateral to apical (B-A)” value is “low (low (<1*10^−6 cm/s))”. In the series on MDCK-MDR1 cells, the “Efflux Ratio (Papp B-A/A-B)” value came out at 0.84. For the same compound, the “Average Sol (solubility limit)” value in series [1] (setting [4]), in series [1] (setting [5]) and in series [1] (pH 7.4 (DMEM-F12 with 10% FBS)) was over 200 µM each time. For the same compound, the “Sol 1 (solubility limit)” value in series [1] (pH 5, replicate 1) was over 200 µM; in series [1] (pH 6.5, replicate 1) it was over 200 µM; in series [1] (pH 7.4, replicate 1), over 200 µM. The “Sol 2 (solubility limit)” value in series [1] (pH 5, replicate 2) is over 200 µM; in series [1] (pH 6.5, replicate 2) it was over 200 µM; in series [1] (pH 7.4, replicate 2) it was over 200 µM. Also, the “Sol 3 (solubility limit)” value in series [1] (pH 6.5, replicate 3) was over 200 µM. Further, the CC50 in series [3] turned out to be 93.8 ± 10.7 µM; with HepDES19 cells, 73.9 ± 28.6 µM. Moreover, in the series on CYP3A4 mRNA expression, the “CYP3A4 mRNA expression increase” value was under 2 fold.

Values taken from paper PMC11784145, “Efficacy and in vitro pharmacological assessment of novel N-hydroxypyridinediones as hepatitis B virus ribonuclease H inhibitors” (Antimicrobial Agents and Chemotherapy, 2024).
